Experiments:
PBMC = test: (§1) Cytotoxicity against HIV1 infected human PBMC cells assessed as reduction in cell viability after 7 days by MTT assay; type: cell-based; conditions: pbmc, 168 h
[1] = target: T1, Human immunodeficiency virus type 1 reverse transcriptase (Human immunodeficiency virus 1, UniProt Q72547); test: Inhibition of HIV1 RT using 17-mer DNA/Alexa Fluor 488 5'-end labeled DNA/Alexa Fluor 555-aha-dUTP as primer/template/substrate preincubated for 10 mins followed substarte addition measured after 30 mins by FRET assay
[2] = test system: Human immunodeficiency virus 1; test: Ratio of IC50 for HIV1 RT K103N mutant to IC50 for wild type HIV1 RT
[3] = target: Human immunodeficiency virus type 1 reverse transcriptase (Human immunodeficiency virus 1, UniProt Q72547, V108I)
CCRF-CEM = test: (§2) Cytotoxicity against HIV1 infected human CEM cells assessed as reduction in cell viability after 7 days by MTT assay; type: cell-based; conditions: ccrf-cem, 168 h
[4] = Ratio of CC50 for human PBM cells to EC50 for HIV-1 LAI infected in human PBM cells
Vero = test: (§3) Cytotoxicity against HIV1 infected African green monkey Vero cells assessed as reduction in cell viability after 7 days by MTT assay; type: cell-based; conditions: chlorocebus sabaeus, vero, 168 h
[5] = test system: Human immunodeficiency virus 1; test: Antiviral activity against HIV-1 LAI infected in human PBM cells after 7 days; type: functional, organism-based; conditions: Human immunodeficiency virus 1, LAI, 168 h
[6] = target: Human immunodeficiency virus type 1 reverse transcriptase (Human immunodeficiency virus 1, UniProt Q72547, E138K)
[7] = target: Human immunodeficiency virus type 1 reverse transcriptase (Human immunodeficiency virus 1, UniProt Q72547, K103N)
[8] = test system: Human immunodeficiency virus 1
[9] = test system: Human immunodeficiency virus 1; test: Ratio of IC50 for HIV1 RT E138K mutant to IC50 for wild type HIV1 RT
[10] = target: T1, Human immunodeficiency virus type 1 reverse transcriptase; test: Inhibition of HIV1 RT using A5'-end 32P-labeled 24-mer primer/a48-mer template preincubated for 5 mins followed by 1 uM nucleotides addition measured after 10 mins by gel-based primer extension assay
[11] = target: T1, Human immunodeficiency virus type 1 reverse transcriptase; test: Inhibition of HIV1 RT using A5'-end 32P-labeled 24-mer primer/a48-mer template preincubated for 5 mins followed by 10 uM nucleotides addition measured after 5 mins by gel-based primer extension assay
[12] = target: T1, Human immunodeficiency virus type 1 reverse transcriptase; test: Inhibition of HIV1 RT using A5'-end 32P-labeled 24-mer primer/a48-mer template preincubated for 5 mins followed by 0.5 uM nucleotides addition measured after 15 mins by gel-based primer extension assay
[13] = target: T1, Human immunodeficiency virus type 1 reverse transcriptase; test: Inhibition of HIV1 RT using A5'-end 32P-labeled 24-mer primer/a48-mer template preincubated for 5 mins followed by 25 uM nucleotides addition measured after 2 mins by gel-based primer extension assay
[14] = as §1; type: cell-based; conditions: HIV1 infected PBMC cells
[15] = as §2; type: cell-based, CCRF-CEM; conditions: HIV1 infected CEM (CCRF-CEM) cells
[16] = as §3; type: cell-based; conditions: chlorocebus sabaeus, HIV1 infected Vero cells

SMILES: CCCCn1cc(C#N)c2c(-c3ccc(C(F)(F)F)cc3F)c3c(nc21)-c1ccccc1C3=O
- CC50 (PBMC): > 100 µM
- IC50 [1]: 0.58 µM
- Ratio IC50 [2]: 49
- IC50 [3]: > 100 µM
- CC50 (CCRF-CEM): 48 µM
- Ratio CC50/EC50 [4]: >100
- CC50 (Vero): 6.8 µM
- EC50 [5]: 0.83 µM
- IC50 [6]: > 100 µM
- IC50 [7]: 28 µM

SMILES: CC(=O)c1cc2c(-c3ccc(N(C)C)cc3)c3c(nc2[nH]1)-c1ccccc1C3=O
- CC50 (PBMC): > 100 µM
- IC50 [1]: 15 µM
- CC50 (CCRF-CEM): 24 µM
- Ratio CC50/EC50 [4]: >100
- CC50 (Vero): 11 µM
- EC50 [5]: 0.93 µM

SMILES: CC1(C)CC(=O)c2cc3c(C#N)cn(Cc4ccccc4)c3nc2C1
- CC50 (PBMC): > 100 µM
- IC50 [1]: 12 µM
- CC50 (CCRF-CEM): 3.7 µM
- Ratio CC50/EC50 [4]: >100
- CC50 (Vero): > 100 µM
- EC50 [5]: 0.91 µM

SMILES: N#Cc1cn(Cc2ccccc2)c2ncc(Br)cc12
- CC50 (PBMC): > 100 µM
- IC50 [1]: > 100 µM
- CC50 (CCRF-CEM): > 100 µM
- Ratio CC50/EC50 [4]: >100
- CC50 (Vero): > 100 µM
- EC50 [5]: 0.47 µM

SMILES: CC(C)(C)n1cc(C#N)c2cc(C=O)cnc21
- CC50 (PBMC): > 100 µM
- IC50 [1]: 14 µM
- CC50 (CCRF-CEM): > 100 µM
- Ratio CC50/EC50 [4]: >100
- CC50 (Vero): 8.1 µM
- EC50 [5]: 0.49 µM

SMILES: CC1(C)CC(=O)c2c(nc3c(c(C#N)cn3Cc3ccccc3)c2-c2ccc([N+](=O)[O-])cc2)C1
- IC50 [1]: 1.4 µM

SMILES: CC1(C)CC(=O)c2c(nc3c(c(C#N)cn3Cc3ccccc3)c2-c2cccc(Cl)c2)C1
- IC50 [1]: 58 µM
- EC50 [5]: 1 µM

SMILES: CC1(C)CC(=O)c2c(nc3c(c(C#N)cn3Cc3ccccc3)c2-c2ccc(F)cc2)C1
- IC50 [1]: 2.9 µM

SMILES: Cc1ccc(-c2cnc3c(c2)c(C#N)cn3Cc2ccccc2)cc1
- CC50 (PBMC): > 100 µM
- IC50 [1]: > 100 µM
- CC50 (CCRF-CEM): > 100 µM
- Ratio CC50/EC50 [4]: >100
- CC50 (Vero): 8.1 µM
- EC50 [5]: 0.49 µM

SMILES: CC1(C)CC(=O)c2c(nc3c(c(C#N)cn3Cc3ccccc3)c2-c2c(F)cccc2F)C1
- IC50 [1]: 0.36 µM
- EC50 [5]: 0.46 µM

SMILES: CC(=O)c1c(C)nc2c(c(C#N)cn2Cc2ccccc2)c1-c1ccc([N+](=O)[O-])cc1
- CC50 (PBMC): > 100 µM
- IC50 [1]: 6.3 µM
- Ratio IC50 [2]: 2.4
- IC50 [3]: > 100 µM
- Ratio IC50 [8]: 12
- Ratio IC50 [9]: 9.4
- CC50 (CCRF-CEM): > 100 µM
- Ratio CC50/EC50 [4]: >100
- CC50 (Vero): > 100 µM
- EC50 [5]: 0.19 µM
- IC50 [6]: 59 µM
- IC50 [7]: 15 µM

SMILES: CCCc1c2c(nc3c1c(C#N)cn3C1CCCCC1)CCC2=O
- CC50 (PBMC): > 100 µM
- IC50 [1]: > 100 µM
- CC50 (CCRF-CEM): > 100 µM
- Ratio CC50/EC50 [4]: >100
- CC50 (Vero): > 100 µM
- EC50 [5]: 0.69 µM

SMILES: Cc1cccc(C)c1-c1c2c(nc3c1c(C#N)cn3Cc1ccccc1)CC(C)(C)CC2=O
- IC50 [1]: 26 µM
- EC50 [5]: > 100 µM

SMILES: O=C1Nc2ccc(Cl)cc2[C@@](C#CC2CC2)(C(F)(F)F)O1 [EFAVIRENZ]
- CC50 (PBMC): > 100 µM
- CC50 (CCRF-CEM): > 100 µM
- CC50 (Vero): > 100 µM

SMILES: CC1(C)CC(=O)c2c(nc3c(c(C#N)cn3Cc3ccccc3)c2-c2ccccc2)C1
- CC50 (PBMC): > 100 µM
- IC50 [1]: 0.73 µM
- IC50 [10]: 8.9 µM
- Ratio IC50 [2]: 28
- IC50 [3]: > 100 µM
- IC50 [11]: 0.96 µM
- Ratio IC50 [8]: 11
- Ratio IC50 [9]: 211
- CC50 (CCRF-CEM): > 100 µM
- Ratio CC50/EC50 [4]: >100
- CC50 (Vero): > 100 µM
- EC50 [5]: 0.35 µM
- IC50 [6]: 69 µM
- IC50 [12]: 10 µM
- IC50 [7]: 9.2 µM
- IC50 [13]: 0.73 µM

SMILES: Cc1ccnc2c1NC(=O)c1cccnc1N2C1CC1 [NEVIRAPINE]
- CC50 at 168 h [14]: > 100 µM
- CC50 at 168 h [15]: > 100 µM
- CC50 at 168 h [16]: > 100 µM
- EC50 [5]: 0.04 µM

SMILES: C=CCn1cc(C#N)c2cc(C#N)cnc21
- CC50 (PBMC): > 100 µM
- IC50 [1]: > 100 µM
- CC50 (CCRF-CEM): > 100 µM
- Ratio CC50/EC50 [4]: >100
- CC50 (Vero): > 100 µM
- EC50 [5]: 0.76 µM

Source: ChEMBL document CHEMBL4425139, “Discovery, characterization, and lead optimization of 7-azaindole non-nucleoside HIV-1 reverse transcriptase inhibitors” (Bioorg Med Chem Lett, 2016)
